Reference: EP3305318A1, “[6R]-5,10-METHYLENETETRAHYDROFOLATE IN 5-FLUOROURACIL BASED CHEMOTHERAPY” (Isofol Medical AB, priority 2016, dated 2018)
Where two headings read alike, the source gives them in different places.

Tests used:
solid tumours = details: cited from earlier work
colorectal tumors = details: cited from earlier work
[1] = tested on: previously untreated metastatic colorectal cancer; details: Phase II trial; cited from earlier work
pancreas cancer = details: CoFactor combined with 5-FU, phase I/II; cited from earlier work
colorectal cancer [2] = details: Phase IIb study; cited from earlier work
metastatic breast cancer = details: 5-FU combined with cyclophosphamide and methotrexate (CMF); cited from earlier work
[3] = tested on: advanced and recurring head and neck squamous cell cancer; details: 5-FU in combination therapies with platinum compounds; cited from earlier work
colorectal cancer [4] = test: 5-FU bolus followed by multiple IV boluses of [6R]-MTHF in colorectal cancer patients (Phase I/II dose cohort trial); format: in vivo, human; details: initial administration of 5-FU followed by multiple IV boluses of [6R]-MTHF, interval of about 10 min - 4 hours between each bolus
Text: As used herein, the term ORR shall refer to the Objective Response Rate, ie. the proportion of patients with reduction in tumor burden of a predefined amount. This shall be calculated as follows: ORR = Sum of partial responses plus complete responses as per RECIST 1.1 (a set of published rules that define when tumours in cancer patients progress during treatments, the responses being defined as: • Complete Response: Disappearance of all target lesions. • Partial Response: At least a 30% decrease in the sum of the diameters of target lesions, taking as reference the baseline sum diameters. (Eisenhauer EA, Therasse P, Bogaerts J, Schwartz LH, Sargent D, Ford R, et al. New response evaluation criteria in solid tumours: revised RECIST guideline (version 1.1). Eur J Cancer. 2009 Jan; 45(2):228-47)
The safety and efficacy of [6R]-5,10-methylenetetrahydrofolate is analyzed in an open-label, multiple-site, Phase I/II Dose Cohort Trial in combination with a fixed dose of 5-Fluorouracil (5-FU) alone or together with a fixed dose of Oxaliplatin or Irinotecan in patients with stage IV colorectal cancer. […]
[6R]-5,10-Methylenetetrahydrofolic acid is formulated as a lyophylised powder containing 100 mg per vial (calculated as free acid). […]

TS = biological target: T1, TS (Lacticaseibacillus casei, UniProt P00469); details: cited from earlier work
T1 sequence (P00469 1-316): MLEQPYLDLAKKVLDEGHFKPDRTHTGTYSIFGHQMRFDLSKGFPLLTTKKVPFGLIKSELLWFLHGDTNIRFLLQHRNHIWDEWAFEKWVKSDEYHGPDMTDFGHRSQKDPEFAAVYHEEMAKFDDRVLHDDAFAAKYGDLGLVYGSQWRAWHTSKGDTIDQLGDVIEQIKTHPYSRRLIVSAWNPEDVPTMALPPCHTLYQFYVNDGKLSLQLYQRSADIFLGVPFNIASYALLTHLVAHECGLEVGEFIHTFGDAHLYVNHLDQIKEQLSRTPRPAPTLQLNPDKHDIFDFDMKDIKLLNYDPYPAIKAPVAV

Nc1nc2c(c(=O)[nH]1)N(C=O)C(CNc1ccc(C(=O)N[C@@H](CCC(=O)O)C(=O)O)cc1)CN2 (stereo partly shown) [LV, Leucovorin]
overall response rates (solid tumours; LV added to 5-FU): over 20%
response rate (colorectal tumors; Leucovorin (LV) added to 5-FU): 21%

Nc1nc2c(c(=O)[nH]1)N1CN(c3ccc(C(=O)N[C@@H](CCC(=O)[O-])C(=O)[O-])cc3)CC1CN2.[Ca+2] (stereo partly shown) [CoFactor®, [6R,S]-5,10-methylene-THF Ca salt]
response rate [1]: 35%
clinical benefit, defined as stable disease or tumor response (pancreas cancer): 40 % of patients
efficacy or safety compared with leucovorin study arm (colorectal cancer [2]): no significant differences

O=c1[nH]cc(F)c(=O)[nH]1 [5-FU, 5-fluorouracil]
overall response rate (solid tumours; 5-FU alone): 10-15%
OS (metastatic breast cancer): around 20 months
reponse rate (metastatic breast cancer): around 20%
Response rates [3]: around 30%
survival time [3]: around 6 months
response rate (colorectal tumors; 5-FU given as a monotherapy): around 10%

Nc1nc2c(c(=O)[nH]1)N1CN(c3ccc(C(=O)N[C@@H](CCC(=O)O)C(=O)O)cc3)C[C@H]1CN2 [[6R]-MTHF, [6R]-5,10-methylenetetrahydrofolate]
ORRs (objective response rates) (colorectal cancer [4]): 50-60%

Nc1nc2c(c(=O)[nH]1)N1CN(c3ccc(C(=O)N[C@@H](CCC(=O)O)C(=O)O)cc3)C[C@@H]1CN2 [(6S)-isomer]
effect on the natural [6R]-isomer as co-substrate for TS (TS): partial competitive inhibitor
